Assay results from paper PMC7377239, “Cardiovascular Effects of Polychlorinated Biphenyls and Their Major Metabolites” (Environmental Health Perspectives, 2020).
Counter-ions that a name gives are not always drawn. Like-named read-outs stand apart in the source and are kept apart here.

Legend:
[1] = test system: iPSC-CMs, iPSC-ECs and HUVECs phenotypes; assay: ToxPi 2.0 integration of POD values and physicochemical descriptors; parameters: species or system human; conditions: ToxPi-scaled (0-1) score; for huvec.cyto.24hr / huvec.mito.24hr / huvec.mitoint.24hr / huvec.nma.24hr / huvec.tc.24hr / huvec.mtl.18hr / huvec.tlps.18hr / huvec.tta.18hr / huvec.ttl.18hr: HUVECs; for huvec.mtl.18hr / huvec.tlps.18hr / huvec.tta.18hr / huvec.ttl.18hr / endo.mtl.18hr / endo.tlps.18hr / endo.tta.18hr / endo.ttl.18hr: tube formation; for cm.amp.avg.90min / cm.amp.cv.90min / cm.bpm.90min / cm.cam.90min / cm.decay.rise.90min / cm.mii.90min / cm.mito.90min / cm.spacing.cv.90min / cm.tc.90min / cm.amp.avg.24hrs / cm.amp.cv.24hrs / cm.bpm.24hrs / cm.cam.24hrs / cm.decay.rise.24hrs / cm.mii.24hrs / cm.mito.24hrs / cm.spacing.cv.24hrs / cm.tc.24hrs: iPSC cardiomyocytes; for endo.cyto.24hr / endo.mito.24hr / endo.mitoint.24hr / endo.nma.24hr / endo.tc.24hr / endo.mtl.18hr / endo.tlps.18hr / endo.tta.18hr / endo.ttl.18hr: iPSC endothelial cells
Method in brief: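 Phenotypic readouts in iPSC-cardiomyocytes, iPSC-endothelial cells and HUVECs were normalised to 0.5% DMSO vehicle and fitted to a four-parameter logistic model. POD set at one SD cutoff of vehicle means, with 100 μM assigned when no response. PODs and physicochemical descriptors combined in ToxPi 2.0 scores.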

[2] = test system: iCell endothelial cells (human iPSC-derived ECs); assay: High-content imaging cytotoxicity in iCell endothelial cells, 24 h; format: cell-based; conditions: Homo sapiens, Endothelial cell, endothelial cells (endo), 24 hr
Method in brief: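 Human iPSC-derived endothelial cells (passages 1–5) were grown to a fibronectin-coated monolayer, then exposed 24 h at 37 °C with 0.5% DMSO vehicle. Staining was Hoechst 33342, MitoTracker Orange and calcein AM, read by high-content imaging. Point of departure came from 4-parameter logistic fits, with a 1-SD vehicle cutoff and 100 µM as the top concentration.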

[3] = cyto, read-out: POD endo.cyto.24hr
[4] = mito, read-out: POD endo.mito.24hr
[5] = mitoint, read-out: POD endo.mitoint.24hr
[6] = nma, read-out: POD endo.nma.24hr

COc1cc(Cl)c(-c2cc(Cl)ccc2Cl)cc1Cl [4-OMe-PCB 52, 4-methoxy-2,2′,5,5′-tetrachlorobiphenyl]
huvec.cyto.24hr [1]: 0.503 | huvec.mito.24hr [1]: 0.6182 | huvec.mitoint.24hr [1]: 0.7163 | huvec.nma.24hr [1]: 0.4778 | huvec.tc.24hr [1]: 0.503 | huvec.mtl.18hr [1]: 0.3949 | huvec.tlps.18hr [1]: 0.3694 | huvec.tta.18hr [1]: 0 | huvec.ttl.18hr [1]: 0 | cm.amp.avg.90min [1]: 0.7151 | cm.amp.cv.90min [1]: 0.1921 | cm.bpm.90min [1]: 0.6456 | cm.cam.90min [1]: 0.5317 | cm.decay.rise.90min [1]: 0.5533 | cm.mii.90min [1]: 0.2088 | cm.mito.90min [1]: 0.6868 | cm.spacing.cv.90min [1]: 0.09243 | cm.tc.90min [1]: 0.4554 | cm.amp.avg.24hrs [1]: 0 | cm.amp.cv.24hrs [1]: 0.07106 | cm.bpm.24hrs [1]: 0.2075 | cm.cam.24hrs [1]: 0.1487 | cm.decay.rise.24hrs [1]: 0.2631 | cm.mii.24hrs [1]: 0.763 | cm.mito.24hrs [1]: 0.2211 | cm.spacing.cv.24hrs [1]: 0.2504 | cm.tc.24hrs [1]: 0.2416 | endo.cyto.24hr [1]: 0.1456 | endo.mito.24hr [1]: 0.1456 | endo.mitoint.24hr [1]: 0 | endo.nma.24hr [1]: 0.1018 | endo.tc.24hr [1]: 0.1602 | endo.mtl.18hr [1]: 0.06827 | endo.tlps.18hr [1]: 0.09286 | endo.tta.18hr [1]: 0.06026 | endo.ttl.18hr [1]: 0.05573 | minimal effective concentration [2, 3]: 43.5 µM | minimal effective concentration [2, 4]: 43.5 µM | minimal effective concentration [2, 5]: 100 µM | minimal effective concentration [2, 6]: 56.1 µM | minimal effective concentration ([2]; tc, read-out: POD endo.tc.24hr): 40.3 µM

O=S(=O)(O)Oc1ccc(-c2cccc(Cl)c2)cc1Cl [4-PCB 11 sulfate]
huvec.cyto.24hr [1]: 0.07428 | huvec.mito.24hr [1]: 0.09457 | huvec.mitoint.24hr [1]: 0.4402 | huvec.nma.24hr [1]: 0.4481 | huvec.tc.24hr [1]: 0.07428 | huvec.mtl.18hr [1]: 0.4352 | huvec.tlps.18hr [1]: 0.2468 | huvec.tta.18hr [1]: 0 | huvec.ttl.18hr [1]: 0 | cm.amp.avg.90min [1]: 0.5438 | cm.amp.cv.90min [1]: 0.207 | cm.bpm.90min [1]: 0.3056 | cm.cam.90min [1]: 0 | cm.decay.rise.90min [1]: 0.417 | cm.mii.90min [1]: 0 | cm.mito.90min [1]: 0 | cm.spacing.cv.90min [1]: 0.1011 | cm.tc.90min [1]: 0 | cm.amp.avg.24hrs [1]: 0.2154 | cm.amp.cv.24hrs [1]: 0.3772 | cm.bpm.24hrs [1]: 0.2853 | cm.cam.24hrs [1]: 0.3798 | cm.decay.rise.24hrs [1]: 0.3284 | cm.mii.24hrs [1]: 0.1874 | cm.mito.24hrs [1]: 0.571 | cm.spacing.cv.24hrs [1]: 0.2596 | cm.tc.24hrs [1]: 0.6332 | endo.cyto.24hr [1]: 0 | endo.mito.24hr [1]: 0 | endo.mitoint.24hr [1]: 0 | endo.nma.24hr [1]: 0 | endo.tc.24hr [1]: 0 | endo.mtl.18hr [1]: 0.1436 | endo.tlps.18hr [1]: 0.3311 | endo.tta.18hr [1]: 0.1419 | endo.ttl.18hr [1]: 0.1256 | minimal effective concentration [2, 3]: 100 µM | minimal effective concentration [2, 4]: 100 µM | minimal effective concentration [2, 5]: 100 µM | minimal effective concentration [2, 6]: 100 µM | minimal effective concentration ([2]; tc, read-out: POD endo.tc.24hr): 100 µM

O=S(=O)(O)Oc1cc(Cl)c(-c2cc(Cl)ccc2Cl)cc1Cl [4-PCB 52 sulfate]
huvec.cyto.24hr [1]: 0.3025 | huvec.mito.24hr [1]: 0.4046 | huvec.mitoint.24hr [1]: 0.09717 | huvec.nma.24hr [1]: 0.1382 | huvec.tc.24hr [1]: 0.3025 | huvec.mtl.18hr [1]: 0.4309 | huvec.tlps.18hr [1]: 0.4338 | huvec.tta.18hr [1]: 0 | huvec.ttl.18hr [1]: 0 | cm.amp.avg.90min [1]: 0.5595 | cm.amp.cv.90min [1]: 0.2844 | cm.bpm.90min [1]: 0.3731 | cm.cam.90min [1]: 0.9201 | cm.decay.rise.90min [1]: 0.4741 | cm.mii.90min [1]: 0.3306 | cm.mito.90min [1]: 0.9162 | cm.spacing.cv.90min [1]: 0.09545 | cm.tc.90min [1]: 0.9127 | cm.amp.avg.24hrs [1]: 0 | cm.amp.cv.24hrs [1]: 0.4327 | cm.bpm.24hrs [1]: 0.3667 | cm.cam.24hrs [1]: 0.3358 | cm.decay.rise.24hrs [1]: 0.4673 | cm.mii.24hrs [1]: 0.2133 | cm.mito.24hrs [1]: 0.5368 | cm.spacing.cv.24hrs [1]: 0.207 | cm.tc.24hrs [1]: 0.5686 | endo.cyto.24hr [1]: 0.1547 | endo.mito.24hr [1]: 0.1547 | endo.mitoint.24hr [1]: 0 | endo.nma.24hr [1]: 0 | endo.tc.24hr [1]: 0.1212 | endo.mtl.18hr [1]: 0.2716 | endo.tlps.18hr [1]: 0.4577 | endo.tta.18hr [1]: 0.2209 | endo.ttl.18hr [1]: 0.2158 | minimal effective concentration [2, 3]: 41.2 µM | minimal effective concentration [2, 4]: 41.2 µM | minimal effective concentration [2, 5]: 100 µM | minimal effective concentration [2, 6]: 100 µM | minimal effective concentration ([2]; tc, read-out: POD endo.tc.24hr): 50.3 µM

Oc1cc(Cl)cc(-c2cccc(Cl)c2)c1 [5-OH-PCB 11]
huvec.cyto.24hr [1]: 0.4815 | huvec.mito.24hr [1]: 0.5672 | huvec.mitoint.24hr [1]: 0.6755 | huvec.nma.24hr [1]: 0.5619 | huvec.tc.24hr [1]: 0.4815 | huvec.mtl.18hr [1]: 0.5955 | huvec.tlps.18hr [1]: 0 | huvec.tta.18hr [1]: 0 | huvec.ttl.18hr [1]: 0.1684 | cm.amp.avg.90min [1]: 0.6478 | cm.amp.cv.90min [1]: 0.2678 | cm.bpm.90min [1]: 0.7407 | cm.cam.90min [1]: 0.7498 | cm.decay.rise.90min [1]: 0.5778 | cm.mii.90min [1]: 0.4013 | cm.mito.90min [1]: 0.8059 | cm.spacing.cv.90min [1]: 0.07982 | cm.tc.90min [1]: 0.8069 | cm.amp.avg.24hrs [1]: 0.069 | cm.amp.cv.24hrs [1]: 0.2233 | cm.bpm.24hrs [1]: 0.1451 | cm.cam.24hrs [1]: 0.2664 | cm.decay.rise.24hrs [1]: 0.2666 | cm.mii.24hrs [1]: 0.6539 | cm.mito.24hrs [1]: 0.4142 | cm.spacing.cv.24hrs [1]: 0.2695 | cm.tc.24hrs [1]: 0.5144 | endo.cyto.24hr [1]: 0.1503 | endo.mito.24hr [1]: 0.1503 | endo.mitoint.24hr [1]: 0.08226 | endo.nma.24hr [1]: 0.3443 | endo.tc.24hr [1]: 0.1482 | endo.mtl.18hr [1]: 0.3075 | endo.tlps.18hr [1]: 0.4586 | endo.tta.18hr [1]: 0.2424 | endo.ttl.18hr [1]: 0.241 | minimal effective concentration [2, 3]: 42.3 µM | minimal effective concentration [2, 4]: 42.3 µM | minimal effective concentration [2, 5]: 55 µM | minimal effective concentration [2, 6]: 14.2 µM | minimal effective concentration ([2]; tc, read-out: POD endo.tc.24hr): 43.2 µM
